Here are results for 27 molecules from ChEMBL document CHEMBL1133190, “SPR biosensor studies of the direct interaction between 27 drugs and a liposome surface: correlation with fraction absorbed in humans” (J Med Chem, 2000).

The subject of data set [1] is Liposome. Description: (§1) Binding to POPC/GMI liposomes using biosensor system.
The subject of data set [2] is Liposome. Description: (§2) Binding to POPC (palmitoyl-oleolyl-phosphatidyl-choline) liposomes using biosensor system.
For data set [3], the system named is Liposome. The data set is described as §2. Format: functional.
For data set [4], the system named is Liposome. Described as §1. Format: functional.
Data set [5] in a line: Estimation of fraction absorbed (Fa) in the human intestine using biosensor technology. Format: ADME, organism-based. The conditions noted are these: in vivo.

For the molecule `CC(C)(C)NCC(O)c1cc(O)cc(O)c1` (stereo unspecified), the Other in data set [1] was 117; in data set [2], 47.
Consider `OC[C@@H](O)[C@@H](O)[C@H](O)[C@H](O)CO`, for which the Other in data set [3] amounted to 22; in data set [4], 29.
Regarding `C=CCOc1ccccc1OCC(O)CNC(C)C` (stereo unspecified), the Other in data set [3] amounted to 120; in data set [4] it was 277.
On to `O=C(O)P(=O)(O)O`, for which the Other in data set [1] came out at 62; in data set [2], 32.
On to `CCN1CCCC1CNC(=O)c1cc(S(N)(=O)=O)ccc1OC` (stereo unspecified), for which the results for the Other in data set [3] and in data set [4] were 47 and 78, respectively.
As to `NS(=O)(=O)c1cc2c(cc1Cl)NCNS2(=O)=O` [HYDROCHLOROTHIAZIDE], the Fa in data set [5] was 55%. Besides, the Other was 60 in data set [3] and 95 in data set [4].
Consider `CC(C)NCC(O)COc1cccc2[nH]ccc12` (stereo unspecified), for which the Other was determined as 142 in data set [3] and 314 in data set [4].
For `C=CCc1ccccc1OCC(O)CNC(C)C` (stereo unspecified), in that order: 297 and 480.
`COCCc1ccc(OCC(O)CNC(C)C)cc1` (stereo unspecified): the values for the Other in data set [1] and in data set [2] were 179 and 82, respectively.
Consider `CN1CC(=O)NC1=N` [CREATININE], for which the Fa in data set [5] was 100%. Also, the Other turned out to be 13 in data set [1] and 22 in data set [2].
`CC(C)NCC(O)COc1cccc2ccccc12` (stereo unspecified) [PROPRANOLOL]: the Fa in data set [5] was 100%. The results for the Other in data set [3] and in data set [4] were 683 and 839, respectively.
`CC(C(=O)O)c1cccc(C(=O)c2ccccc2)c1` (stereo unspecified) [KETOPROFEN]: the Fa in data set [5] was 100%. Also, the Other in data set [3] was 62; in data set [4] it was 101.
Taken in the same sequence, the figures for `Cc1cc(=O)n(-c2ccccc2)n1C` [ANTIPYRINE] were 100%, 19 and 12.
Take `NC(=O)N1c2ccccc2C=Cc2ccccc21` [CARBAMAZEPINE]: the Fa in data set [5] was 100%. In addition, the Other was 70 in data set [3] and 144 in data set [4].
For the molecule `O=C(O)c1cc(/N=N/c2ccc(S(=O)(=O)Nc3ccccn3)cc2)ccc1O`, the Other amounted to 348 in data set [1] and 241 in data set [2].
Turning to `CNCCCN1c2ccccc2CCc2ccccc21` [DESIPRAMINE], the Fa in data set [5] is 100%. Moreover, the Other in data set [3] was 1010; in data set [4] it was 1200.
Turning to `CC(C)NCC(O)COc1ccc(CC(N)=O)cc1` (stereo unspecified), the Other in data set [3] worked out at 24; in data set [4], 38.
Taken in the same sequence, the figures for `OC[C@H]1O[C@H](OC[C@H]2O[C@H](O[C@]3(CO)O[C@H](CO)[C@@H](O)[C@@H]3O)[C@H](O)[C@@H](O)[C@@H]2O)[C@H](O)[C@@H](O)[C@H]1O` were 24 and 34.
Consider `CC1(C)S[C@@H]2[C@H](NC(=O)[C@H](N)c3ccc(O)cc3)C(=O)N2[C@H]1C(=O)O` [AMOXICILLIN], for which the Fa in data set [5] is 90%. For the same molecule, the Other in data set [3] was 17; in data set [4], 9.
As to `COc1ccc2cc([C@H](C)C(=O)O)ccc2c1` [NAPROXEN], in data set [5], the Fa is 100%. Besides, the Other in data set [1] stood at 183; in data set [2], 109.
As for `OC[C@H]1OC(O)[C@H](O)[C@@H](O)[C@@H]1O` (stereo partly specified) [DEXTROSE], in data set [5], the Fa is 100%. For the same molecule, the values for the Other in data set [3] and in data set [4] were 18 and 10, respectively.
With `CC(C)C[C@H](N)C(=O)O` [LEUCINE], the Fa in data set [5] was 100%. The results for the Other in data set [1] and in data set [2] were 11 and 18, respectively.
In the case of `NC(N)=O` [UREA], in data set [5], the Fa was 100%. Besides, the Other in data set [1] was 26; in data set [2], 23.
With `OC[C@H]1O[C@@H](O[C@@H]2[C@@H](CO)O[C@](O)(CO)[C@H]2O)[C@H](O)[C@@H](O)[C@H]1O`, the Other was 22 in data set [3] and 29 in data set [4].
For `NC[C@H]1CC[C@H](C(=O)O)CC1`, in that order: 20 and 14.
With `NS(=O)(=O)c1cc(C(=O)O)c(NCc2ccco2)cc1Cl` [FUROSEMIDE], in data set [5], the Fa is 50%. In addition, the Other in data set [3] worked out at 56; in data set [4] it was 92.
For the molecule `COc1ccc(CCN(C)CCCC(C#N)(c2ccc(OC)c(OC)c2)C(C)C)cc1OC` (stereo unspecified), in data set [5], the Fa was 100%.
